US20240166690A1, “MULTI-TARGET CY[…] FOR OPIOID/NEUROPEPTIDE FF RECEPTORS, AND PREPARATION THEREFOR AND APPLICATION THEREOF” (SHANGHAI TIANCI LIFE SCIENCE DEVELOPMENT CO., LTD., priority 2021, published 2024)
Bridge positions count the residues as written; N and C are the ends. Square brackets hold non-standard residues; d marks the D form. Peptide text beside a SMILES is read from it. NMeF = CN[C@@H](Cc1ccccc1)C(=O)O; dOrn = NCCC[C@@H](N)C(=O)O

Tests used:
Format in all cases: in vivo
Kunming male mice [1] = experiment: Photothermal tail flick experiment, oral administration; conditions: for Maximum analgesic time: oral administration at the maximum analgesic dose; for Maximum analgesic time / analgesic duration: tail flick; for ED50 value (95% confidence interval), oral analgesic activity / analgesic duration: oral administration; for ED50 value (95% confidence interval), oral analgesic activity: photothermal tail flick
Experimental: Two administration methods were used: peripheral subcutaneous administration and oral administration. Subsequently, the analgesic activity of the drug was studied using an acute pain model of photothermal tail flick in mice.
1 mL sterile syringe was used for oral administration (p.o.), the pinhead was replaced with a mouse gastric lavage needle, and […] of the drug was orally administered. The skin on the neck and back of the mouse was grasped with the left hand with the abdomen facing upwards. Noted that the mouse's entire body was fixed to vertical, which was beneficial for oral gavage. A gastric lavage needle (No. 12 needle and 1 mL syringe) was held in the right hand and was inserted to the esophagus along the upper jaw which is pressed the tongue tightly from the corner of the mouse's mouth. Gastric lavage fluid can be injected when the needle inserted 2.5 cm. The inserting length of the needle should be determined through practice in advance, as there is a sense of falling into a hole after the needle is inserted. If the injection position was appropriate, it should be very smooth. […] This can cause immediate death of the mouse after gavage.
The photothermal tail flick experiment is based on the experimental method summarized by D'Amour and Smith to optimize the experimental parameters. The experiment selected Kunming male mice with body weigh 21±2 g, and ambient temperature controlled at 22±2° C. The experimental mice were allowed to drink water freely and were moved from the breeding room to the experimental area for adaptation for 30 minutes before starting the experiment. Then the mice were grab with the right hand and the tail hang freely. Then the mice's tail were placed on a radiation light source, 2-3 mm away from the mice tail. The intensity of radiation heat was adjusted to the tail flick time of mice being 3-5 s, which is the basic pain threshold of photothermal tail flick. The irradiation time of the mice tail should not exceed 10 s to prevent scalding of the mice tail, which was the maximum latency for photothermal tail flick. After administration, time points of 10, 20, 30, 45, 60, 90, 120, 180, 240, 300, 360, and 420 minutes were selected to measure the tail flick latency of mice after administration.
The analgesic effect of drugs was generally evaluated using the maximum analgesic effect MPE (%), MPE (%)=100×[(pain threshold after administration−basic pain threshold)/(10 seconds−basic pain threshold)]. 50% effective dose (ED50) refers to the corresponding drug dose that causes a 50% effect. ED50 and 95% confidence interval were calculated using MPE (%) and the drug concentration that achieves the maximum analgesic effect MPE (%) by the statistical software GraphPad Prism 5.0. The difference in analgesic effects was statistically analyzed using one-way ANOVA (Dunnett test), *P<0.05, **P<0.01, and ***P<0.001 indicated significance of the difference between the group with only drug injected and the saline group.

male mice = experiment: Conditioned place preference experiment (CPP); conditions: 10000 μg/kg orally
Experimental: Conditioned place preference experiment (CPP) was conducted in a device consisting of three organic glass boxes, wherein two large boxes (20×20×20 cm) on either side separated by a small box (5×20×20 cm) in the middle. A small door of 5×5 was at the bottom of two large boxes for mice to enter and exit, and the doors can be closed. A box on one side was white, with a rough wire mesh as the bottom and a light intensity of 50 lux. A box on other side was black, with a smooth bottom and a light intensity of 20 lux. 25±5 g male mice were selected for the experiment, the room temperature was 22±1° C. On the first day of the experiment, the mice were first screened, allowing them to shuttle freely between two boxes for 15 minutes. The time the mice stayed in one box was recorded, and mice that stayed for more than 9 minutes were removed. Mice without preference/aversion were selected. […] On the 5th day, CPP performance was measured. As on the first day, the time stay in each box was measured for the mice after administration with the duration of 15 minutes. The inter group differences between different drug treatments in the CPP experiment and the differences in the number of jumps in the naloxone withdrawal experiment was statistically analyzed using paired t-tests. *P<0.05, **P<0.01, and ***P<0.001 indicated significance of differences between the drug treatment group and the saline group.

Kunming male mice [2] = experiment: Analgesic tolerance assay, oral injection for 8 consecutive days; conditions: 8 consecutive days of oral injection, tail flick latency
Experimental: The analgesic tolerance experiment was conducted by orally injecting compounds 1 and 11 for 8 consecutive days, and then identifying the changes in the analgesic tail flick threshold from the first day to the eighth day through a photothermal tail flick experiment, thus evaluating the pharmacological activity of compounds 1 and 11 in the present invention in terms of analgesic tolerance.
21±2 g Kunming male mice were selected for the experiment, and the mice were eat freely. Generally, the basic pain threshold of mice was measured on the first day, followed by oral injection of compounds 1 and 11 for 8 consecutive days. The pain threshold at different time points was measured on the first day, and only the pain threshold at the highest analgesic point was measured on the following 7 days.
The experimental data was represented by tail flick time. The analgesic tolerance of drugs was compared using the tail flick latency at the maximum analgesic effect time point of different compounds. The tail flick latency data was represented by mean±S.E.M. The differences of analgesic effects of […] administration for eight days in mice were analyzed using one-way ANOVA (Tukey HSD test). *P<0.05, **P<0.01, and ***P<0.001 indicated a significant difference in analgesic effects compared to the injection of the drug on the first day.

Row | SMILES | Maximum analgesic time (Kunming male mice [1]) [min] | ED50 value (95% confidence interval), oral analgesic activity (Kunming male mice [1]) [µg/kg] | analgesic duration (Kunming male mice [1]) [min] | conditioned place preference (male mice) | analgesic tolerance (Kunming male mice [2])
1 | CN1C(=O)CNC(=O)[C@H](NC(=O)[C@@H](N)Cc2ccc(O)cc2)CCCCNC(=O)C[C@@H](C(=O)N2CCC[C@H]2C(=O)N[C@@H](CCC(N)=O)C(=O)N[C@@H](CCCNC(=N)N)C(=O)N[C@@H](Cc2ccccc2)C(N)=O)NC(=O)[C@@H]1Cc1ccccc1 [Compound 1, Tyr-c[D-Lys-Gly-NMe-Phe-Asp]-Pro-Gln-Arg-Phe-NH2] (H-Y[dK]G[NMeF]DPQRF-NH2; lactam 2-5) | 30 | 1.37 | 240 | no phenomenon of conditioned place preference | no analgesic tolerance observed
2 | CN1C(=O)CNC(=O)[C@H](NC(=O)[C@@H](N)Cc2ccc(O)cc2)CCCNC(=O)CC[C@@H](C(=O)N2CCC[C@H]2C(=O)N[C@@H](CCC(N)=O)C(=O)N[C@@H](CCCNC(=N)N)C(=O)N[C@@H](Cc2ccccc2)C(N)=O)NC(=O)[C@@H]1Cc1ccccc1 [Compound 11, Tyr-c^[2,5][D-Orn-Gly-NMe-Phe-Glu]-Pro-Gln-Arg-Phe-NH2] (H-Y[dOrn]G[NMeF]EPQRF-NH2; lactam 2-5) | 20 | 0.14 | 240 | no phenomenon of conditioned place preference | no analgesic tolerance observed
